The experiment deals with E-cadherin expression in SW620 cells. Put plainly: E-cadherin expression, in-cell Western (ICW), SW620 cells. It is filed as cell-based. The conditions noted are these: for fold induction at 10 µM: SW-620, 24 h; for EC50: inducement of E-cadherin expression in SW620 cells. The procedure, abridged: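 SW620 cells were treated with compound for 24 h in RPMI 1640 (single-point at 10 μM; EC50 also determined), in quadruplicate. After methanol fixation, in-cell Western with anti-E-cadherin and anti-α-tubulin primaries and IRDye 800/700 secondaries. Read on an Odyssey IR imager.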

The mark [1] stands for this setting: Homo sapiens, change in expression level of E-cadherin in response to 10 μM compound, 24 hours, SW620 cells.

The term fold induction denotes the signal under treatment as a multiple of the control signal. Read a low fold induction as little rise in signal. The term EC50 denotes the concentration needed to bring the measured effect to its halfway point. Regarding `O=C(Cc1c[nH]c2ccccc12)NCCCNC(=O)c1cc(-c2ccccc2)on1` [Compound 95, N-(3-(2-(1H-indol-3-yl)acetamido)propyl)-5-phenylisoxazole-3-carboxamide], the fold induction at 10 µM under setting [1] came out at 4.2. The compound further had an EC50 (Homo sapiens, SW-620) of 2.57 µM.

`O=C(NCCCNC(=O)c1cc2ccccc2o1)c1cc(-c2ccccc2)on1` [Compound 96, N-(3-(benzofuran-2-carboxamido)propyl)-5-phenylisoxazole-3-carboxamide] registered a fold induction at 10 µM under setting [1] of 2.58.

As to `Cc1cncc(C(=O)NCCCNC(=O)c2cc(-c3cccs3)on2)n1` [Compound 97, N-(3-(6-methylpyrazine-2-carboxamido)propyl)-5-(thiophen-2-yl)isoxazole-3-carboxamide], under setting [1], the fold induction at 10 µM stood at 3.82.

Take `CC(C)(C)c1ccc(C(=O)NCCCNC(=O)c2cc(-c3cccs3)on2)o1` [Compound 98, N-(3-(5-(tert-butyl)furan-2-carboxamido)propyl)-5-(thiophen-2-yl)isoxazole-3-carboxamide]: the fold induction at 10 µM under setting [1] stood at 3.65.

Turning to `O=C(NCCCNC(=O)c1ccc(Cl)o1)c1cc(-c2cccs2)on1` [Compound 99, N-(3-(5-chlorofuran-2-carboxamido)propyl)-5-(thiophen-2-yl)isoxazole-3-carboxamide], under setting [1], the fold induction at 10 µM was 3.66.

Consider `O=C(NCCCNC(=O)c1occc1-c1ccccc1)c1cc(-c2cccs2)on1` [Compound 100, N-(3-(3-phenylfuran-2-carboxamido)propyl)-5-(thiophen-2-yl)isoxazole-3-carboxamide], for which the fold induction at 10 µM under setting [1] came to 2.37.

For the compound `CCc1ccc(C(=O)NCCCNC(=O)c2cc(-c3cccs3)on2)o1` [Compound 101, N-(3-(5-ethylfuran-2-carboxamido)propyl)-5-(thiophen-2-yl)isoxazole-3-carboxamide], the fold induction at 10 µM under setting [1] was determined as 4.24. The compound also showed an EC50 (Homo sapiens, SW-620) of 4.12 µM.

Consider `O=C(NCCCNC(=O)c1ccno1)c1cc(-c2cccs2)on1` [Compound 102, N-(3-(isoxazole-5-carboxamido)propyl)-5-(thiophen-2-yl)isoxazole-3-carboxamide], for which, under setting [1], the fold induction at 10 µM was 2.87.

Under setting [1], `Cn1cnc(C(=O)NCCCNC(=O)c2cc(-c3cccs3)on2)c1` [Compound 103, N-(3-(1-methyl-1H-imidazole-4-carboxamido)propyl)-5-(thiophen-2-yl)isoxazole-3-carboxamide] yielded a fold induction at 10 µM of 3.02.

As for `O=C(NCCCNC(=O)c1cnn[nH]1)c1cc(-c2cccs2)on1` [Compound 104, N-(3-(1H-1,2,3-triazole-5-carboxamido)propyl)-5-(thiophen-2-yl)isoxazole-3-carboxamide], the fold induction at 10 µM under setting [1] was 3.13.

As for `O=C(NCCCNC(=O)c1cc(-c2cccs2)on1)c1cc(-c2ccccc2)ccn1` [Compound 106, N-(3-(4-phenylpicolinamido)propyl)-5-(thiophen-2-yl)isoxazole-3-carboxamide], under setting [1], the fold induction at 10 µM amounted to 3.69.

Under setting [1], `O=C(NCCCNC(=O)c1cccc(C(F)(F)F)n1)c1cc(-c2cccs2)on1` [Compound 107, 5-(thiophen-2-yl)-N-(3-(6-(trifluoromethyl)picolinamido)propyl)isoxazole-3-carboxamide] displayed a fold induction at 10 µM of 4.15. The same compound registered an EC50 (Homo sapiens, SW-620) of 6.95 µM.

Take `O=C(NCCCNC(=O)c1nc2ncccn2n1)c1cc(-c2cccs2)on1` [Compound 108, N-(3-([1,2,4]triazolo[1,5-a]pyrimidine-2-carboxamido)propyl)-5-(thiophen-2-yl)isoxazole-3-carboxamide]: the fold induction at 10 µM under setting [1] was 2.45.

Compound `Cc1cc(C)c(C(=O)NCCCNC(=O)c2cc(-c3cccs3)on2)o1` [Compound 110, N-(3-(3,5-dimethylfuran-2-carboxamido)propyl)-5-(thiophen-2-yl)isoxazole-3-carboxamide] showed a fold induction at 10 µM under setting [1] of 3.74.

Under setting [1], `Cc1cncc(C(=O)NCCCNC(=O)c2cc(-c3ccccc3)on2)n1` [Compound 111, N-(3-(6-methylpyrazine-2-carboxamido)propyl)-5-phenylisoxazole-3-carboxamide] registered a fold induction at 10 µM of 4.13. Also, the EC50 (Homo sapiens, SW-620) was 7.2 µM.

As to `CC(C)(C)c1ccc(C(=O)NCCCNC(=O)c2cc(-c3ccccc3)on2)o1` [Compound 112, N-(3-(5-(tert-butyl)furan-2-carboxamido)propyl)-5-phenylisoxazole-3-carboxamide], under setting [1], the fold induction at 10 µM turned out to be 3.86.

`O=C(NCCCNC(=O)c1occc1-c1ccccc1)c1cc(-c2ccccc2)on1` [Compound 114, 5-phenyl-N-(3-(3-phenylfuran-2-carboxamido)propyl)isoxazole-3-carboxamide] showed a fold induction at 10 µM under setting [1] of 4.7. Where the note is “Homo sapiens, SW-620”, the EC50 is 6.35 µM.

Turning to `CCc1ccc(C(=O)NCCCNC(=O)c2cc(-c3ccccc3)on2)o1` [Compound 115, N-(3-(5-ethylfuran-2-carboxamido)propyl)-5-phenylisoxazole-3-carboxamide], under setting [1], the fold induction at 10 µM is 3.83.

In the case of `Cn1cnc(C(=O)NCCCNC(=O)c2cc(-c3ccccc3)on2)c1` [Compound 116, N-(3-(1-methyl-1H-imidazole-4-carboxamido)propyl)-5-phenylisoxazole-3-carboxamide], the fold induction at 10 µM under setting [1] is 2.6.

Under setting [1], `O=C(NCCCNC(=O)c1cnn[nH]1)c1cc(-c2ccccc2)on1` [Compound 117, N-(3-(1H-1,2,3-triazole-5-carboxamido)propyl)-5-phenylisoxazole-3-carboxamide] registered a fold induction at 10 µM of 3.71.

Regarding `Nc1cncc(C(=O)NCCCNC(=O)c2cc(-c3ccccc3)on2)n1` [Compound 118, N-(3-(6-aminopyrazine-2-carboxamido)propyl)-5-phenylisoxazole-3-carboxamide], the fold induction at 10 µM under setting [1] is 4.38. In addition, the EC50 (Homo sapiens, SW-620) came out at 5.45 µM.

Regarding `O=C(NCCCNC(=O)c1cc(-c2ccccc2)on1)c1cc(-c2ccccc2)ccn1` [Compound 119, 5-phenyl-N-(3-(4-phenylpicolinamido)propyl)isoxazole-3-carboxamide], the fold induction at 10 µM under setting [1] is 4.13. For the setting “Homo sapiens, SW-620”, the concentration giving a half-maximal response (EC50) was determined as 5.64 µM.

On to `O=C(NCCCNC(=O)c1cccc(C(F)(F)F)n1)c1cc(-c2ccccc2)on1` [Compound 120, 5-phenyl-N-(3-(6-(trifluoromethyl)picolinamido)propyl)isoxazole-3-carboxamide], for which the fold induction at 10 µM under setting [1] turned out to be 3.08.

As for `O=C(NCCCNC(=O)C1CCCCO1)c1cc(-c2ccccc2)on1` (stereo not drawn) [Compound 121, 5-phenyl-N-(3-(tetrahydro-2H-pyran-2-carboxamido)propyl)isoxazole-3-carboxamide], the fold induction at 10 µM under setting [1] was 3.74.

“N-(3-(5-chlorofuran-2-carboxamido)propyl)-5-phenylisoxazole-3-carboxamide [Compound 113]” returned a concentration giving a half-maximal response (EC50) of 4.59 µM. The “fold change SW620 ICW” value (change in expression level of E-cadherin in response to 10 μM compound, 24 hours, SW620 cells) is reported as 4.09 fold.
